Laboratory results as given in patent US20230407243A1, “GENETIC PLATFORM TO INVESTIGATE THE FUNCTIONS OF BACTERIAL DRUG EFFLUX PUMPS” (priority 2022, published 2023).

Key:
Assay type in all cases: cell-based, Escherichia coli
E. coli ΔtolC = assay: microbe, parasite or virus in culture; settings: technical duplicate
Procedure: (§1) Single colonies were used to inoculate 3 mL of LB followed by incubation at 37° C. for 18 h with aeration at 220 rpm. The bacterial cells were harvested by centrifugation and resuspended in phosphate buffered saline (PBS) ([pH 7.4], 137 mM NaCl (Bioshop), 2.7 mM KCl (Bioshop), 10 mM Na2PO4 (Bioshop) and 1.8 mM K2PO4) to an OD600 nm˜1.0, followed by 1/2000 dilution into MHB II.
(§2) To a 384-well microtiter plate (Corning, untreated polystyrene), 500 nL of compound was dispensed, in duplicate, and serially titrated 2-fold using an Echo 550 acoustic liquid dispenser (Labcyte Inc.). […] As a solvent control, 500 nL of DMSO was applied to wells that contained no compound. Using a multichannel pipette, 50 μL of the prepared bacterial inoculum was applied to each well. To enable background correction post-incubation, the OD600 nm was measured (Biotek Synergy Neo2 microplate reader) prior to incubation. The plates were incubated at 37° C. with aeration at 900 rpm for 18 h. The plates were equilibrated to room temperature and the OD600 nm measured using a BioTek Synergy Neo2 microplate reader. Data was analyzed in both Prism (GraphPad, Version 9.2.0) and Microsoft Excel (Version 16.53). Raw data were input into Microsoft Excel and the pre-incubation OD600 nm measurements were subtracted from the post-incubation OD600 nm measurements. These corrected measurements were input into Prism 9 as a grouped analysis. […] All other MIC values were adjusted accordingly and visualized using the single-color scale grouped heat map function. Identification of compound chemical properties was achieved using DataWarrior (Version 5.5.0). Using PubChem, the SMILES chemical notation for each compound was obtained and compiled in Microsoft Excel. The resulting spreadsheet was input into DataWarrior and properties were calculated from the compound chemical structures.

E. coli EKO-35 = assay: microbe, parasite or virus in culture
Procedure: as §1, §2

[1] = system: wild-type E. coli K-12 str. BW25113; assay: microbe, parasite or virus in culture; settings: technical duplicate
Procedure: as §1, §2

EKO-35 araC::macAB = assay: MIC susceptibility profiling, efflux platform
Procedure: as §1, §2

EKO-35 araC::emrAB = assay: MIC susceptibility profiling, efflux platform
Procedure: as §1, §2

EKO-35 araC::acrEF = assay: MIC susceptibility profiling, efflux platform
Procedure: as §1, §2

ΔtolC-Pore = assay: microbe, parasite or virus in culture; settings: technical duplicate
Procedure: (§3) For genomic integration of the pore, the fhuA ΔC/Δ4L gene and the adjacent gentamicin resistance cassette were amplified using a high-fidelity polymerase and the fhuA_40_Up/gImS_3680_Low primers (Table 4). Integration of the pore gene was performed as described above. The pore gene was introduced into the intergenic region between the glmS and pstS genes, with gene expression under the control of a constitutive promoter (Kearse, M. et al., 2012). Genomic integrations were verified using PCR (Primers: pstS_520_Up/glmS_3680_Low, Table 4). Successful integrations were transformed with pCP20 to remove the gentamicin resistance cassette as previously described. Activity of the pore was confirmed through susceptibility testing with the large antibiotic vancomycin prior to phenotypic profiling and further susceptibility testing.
as §1, §2

wild-type (WT) K-12-Pore = assay: microbe, parasite or virus in culture; settings: technical duplicate
Procedure: as §3, §1, §2

EKO-35-Pore = assay: MIC susceptibility profiling, porinated strain
Procedure: as §3, §1, §2

EKO-35 araC::acrD Pore = assay: MIC susceptibility profiling, porinated efflux platform
Procedure: as §3, §1, §2

EKO-35 araC::mdtBC Pore = assay: as above
Procedure: as §3, §1, §2

EKO-35 araC::emrAB Pore = assay: as above
Procedure: as §3, §1, §2

EKO-35 araC::macAB Pore = assay: as above
Procedure: as §3, §1, §2

[2] = system: EKO-35 araC::acrBD408A Pore; assay: as above
Procedure: as §3, §1, §2

EKO-35 araC::acrEF Pore = assay: as above
Procedure: as §3, §1, §2

EKO-35 araC::acrB Pore = assay: as above
Procedure: as §3, §1, §2

EKO-35 araC::mexCD Pore = assay: as above
Procedure: as §3, §1, §2

EKO-35 araC::mdtEF Pore = assay: as above
Procedure: as §3, §1, §2

EKO-35 araC::emrKY Pore = assay: as above
Procedure: as §3, §1, §2

[3] = Table 13A, non-porinated, technical duplicate
[4] = Table 13B, non-porinated, technical duplicate
[5] = Table 14A, porinated, technical duplicate

N#CC(C#N)=NNc1cccc(Cl)c1 [CCCP]
conferred resistance: efflux pump-mediated resistance vs EKO-35 (EKO-35 araC::emrAB; EmrAB)
3.125 µg/mL: Minimum inhibitory concentration, EKO-35 araC::acrEF Pore (EKO-35 araC::acrEF Pore; [5])
0.391 µg/mL: Minimum inhibitory concentration (MIC), Pore ΔtolC (ΔtolC-Pore; Table 10, with pore) | Minimum inhibitory concentration, ΔtolC-Pore (ΔtolC-Pore; Table 14A, porinated)
50 µg/mL: Minimum Inhibitory Concentration, EKO-35 araC::emrAB (EKO-35 araC::emrAB; [4])
0.781 µg/mL: Minimum inhibitory concentration (MIC), ΔtolC (E. coli ΔtolC; Table 10, without pore) | Minimum Inhibitory Concentration, ΔtolC (E. coli ΔtolC; Table 13A, non-porinated)
12.5 µg/mL: Minimum inhibitory concentration (MIC), EKO-35 (E. coli EKO-35; Table 10, without pore, technical duplicate) | Minimum Inhibitory Concentration, EKO-35 (E. coli EKO-35; [3]) | Minimum Inhibitory Concentration, EKO-35 araC::macAB (EKO-35 araC::macAB; [4]) | Minimum Inhibitory Concentration, EKO-35 araC::acrEF (EKO-35 araC::acrEF; [3]) | Minimum inhibitory concentration (MIC), Pore K-12 (wild-type (WT) K-12-Pore; Table 10, with pore) | Minimum inhibitory concentration, K-12 (WT)-Pore (wild-type (WT) K-12-Pore; Table 14A, porinated) | Minimum inhibitory concentration (EKO-35 araC::mdtBC Pore; EKO-35 araC::mdtBC Pore, technical duplicate) | Minimum inhibitory concentration (EKO-35 araC::emrAB Pore; EKO-35 araC::emrAB Pore, technical duplicate)
1 fold: Fold change of MICs (E. coli EKO-35; EKO-35 compared to EKO-35 (reference)) | Fold change of MICs (EKO-35 araC::macAB; EKO-35 araC::macAB compared to EKO-35) | Fold change of MICs (EKO-35 araC::acrEF; EKO-35 araC::acrEF compared to EKO-35) | Fold changes of MICs (EKO-35-Pore; EKO-35-Pore compared to EKO-35-Pore (reference)) | Fold changes of MICs (EKO-35 araC::acrD Pore; EKO-35 araC::acrD Pore compared to EKO-35-Pore) | Fold changes of MICs (EKO-35 araC::macAB Pore; EKO-35 araC::macAB Pore compared to EKO-35-Pore) | Fold changes of MICs ([2]; EKO-35 araC::acrBD408A Pore compared to EKO-35-Pore) | Fold changes of MICs (EKO-35 araC::acrEF Pore; EKO-35 araC::acrEF Pore compared to EKO-35-Pore) | Fold changes of MICs (EKO-35 araC::acrB Pore; EKO-35 araC::acr-B Pore compared to EKO-35-Pore) | Fold changes of MICs (EKO-35 araC::mexCD Pore; EKO-35 araC::mexCD Pore compared to EKO-35-Pore) | Fold changes of MICs (EKO-35 araC::mdtEF Pore; EKO-35 araC::mdtEF Pore compared to EKO-35-Pore) | Fold changes of MICs (EKO-35 araC::emrKY Pore; EKO-35 araC::emrKY Pore compared to EKO-35-Pore)
2 fold: Fold changes of MICs (EKO-35 araC::mdtBC Pore; EKO-35 araC::mdtBC Pore compared to EKO-35-Pore) | Fold changes of MICs (EKO-35 araC::emrAB Pore; EKO-35 araC::emrAB Pore compared to EKO-35-Pore)
no longer provided resistance: efflux pump-mediated resistance vs EKO-35-Pore (EKO-35 araC::emrAB Pore; EmrAB, porinated strain)
6.25 µg/mL: Minimum inhibitory concentration (MIC), Pore EKO-35 (EKO-35-Pore; Table 10, with pore, technical duplicate) | Minimum inhibitory concentration, EKO-35-Pore (EKO-35-Pore; [5]) | Minimum inhibitory concentration, EKO-35 araC::acrD Pore (EKO-35 araC::acrD Pore; [5]) | Minimum inhibitory concentration (EKO-35 araC::macAB Pore; EKO-35 araC::macAB Pore, technical duplicate) | Minimum inhibitory concentration ([2]; EKO-35 araC::acrBD408A Pore, technical duplicate) | Minimum inhibitory concentration, EKO-35 araC::acrB Pore (EKO-35 araC::acrB Pore; [5]) | Minimum inhibitory concentration (EKO-35 araC::mexCD Pore; EKO-35 araC::mexCD Pore, technical duplicate) | Minimum inhibitory concentration, EKO-35 araC::mdtEF Pore (EKO-35 araC::mdtEF Pore; [5]) | Minimum inhibitory concentration (EKO-35 araC::emrKY Pore; EKO-35 araC::emrKY Pore, technical duplicate)
25 µg/mL: Minimum inhibitory concentration (MIC), K-12 ([1]; Table 10, without pore) | Minimum Inhibitory Concentration, K-12 ([1]; Table 13A, non-porinated)
4 fold: Fold change of MICs (EKO-35 araC::emrAB; EKO-35 araC::emrAB compared to EKO-35)
